Article PMC7708434 (Biochimica et biophysica acta. General subjects, 2020)

What was measured:
Type in all cases: binding
[1] = biological target: T1, 4-hydroxy-tetrahydrodipicolinate reductase (MtDapB) (Mycobacterium tuberculosis, UniProt P9WP23); assay: ITC
[2] = biological target: T2, 4-hydroxy-tetrahydrodipicolinate reductase (VvDapB) (Vibrio vulnificus, UniProt Q8DEM0); assay: ITC
[3] = biological target: T2, 4-hydroxy-tetrahydrodipicolinate reductase (VvDapB); assay: X-ray crystal structure
[4] = biological target: T1, 4-hydroxy-tetrahydrodipicolinate reductase (MtDapB); assay: X-ray crystal structure

T1 sequence (P9WP23 whole entry): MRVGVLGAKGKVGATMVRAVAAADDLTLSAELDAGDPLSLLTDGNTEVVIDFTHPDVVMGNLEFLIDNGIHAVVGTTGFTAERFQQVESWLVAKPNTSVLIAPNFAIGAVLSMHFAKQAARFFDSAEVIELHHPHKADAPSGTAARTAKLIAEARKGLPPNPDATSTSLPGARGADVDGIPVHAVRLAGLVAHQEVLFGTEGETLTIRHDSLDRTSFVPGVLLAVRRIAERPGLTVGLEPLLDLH
T2 sequence (Q8DEM0 whole entry): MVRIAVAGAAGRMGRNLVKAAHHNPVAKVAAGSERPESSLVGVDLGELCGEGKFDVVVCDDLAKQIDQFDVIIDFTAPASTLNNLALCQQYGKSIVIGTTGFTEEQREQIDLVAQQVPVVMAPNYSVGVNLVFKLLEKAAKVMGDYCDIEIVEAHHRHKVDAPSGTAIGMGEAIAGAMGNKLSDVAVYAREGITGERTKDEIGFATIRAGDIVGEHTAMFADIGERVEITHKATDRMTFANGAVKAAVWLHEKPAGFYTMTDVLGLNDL

Structure (SMILES)	Kd [1] [µM]	Kd [2] [µM]	X-ray crystal structure [3]	X-ray crystal structure [4]
NC(=O)C1=CN([C@@H]2O[C@H](COP(=O)(O)OP(=O)(O)OC[C@H]3O[C@@H](n4cnc5c(N)ncnc54)[C@H](O)[C@@H]3O)[C@@H](O)[C@H]2O)C=CC1 [NADH]	3.6 ± 0.4	3.9 ± 1.2		
NC(=O)c1ccc[n+]([C@@H]2O[C@H](COP(=O)([O-])OP(=O)(O)OC[C@H]3O[C@@H](n4cnc5c(N)ncnc54)[C@H](O)[C@@H]3O)[C@@H](O)[C@H]2O)c1 [NAD+]			NADH was used for crystallization, in all cases we observed NAD^+ in the crystal structures	apo MtDapB (PDB ID: 5TEK chain A) and NAD^+ bound MtDapB (PDB ID: 5UGV chain A) structures
